Results: US10106526B2, “Inhibitors of cyclin-dependent kinase 7 (CDK7)” (SYROS PHARMACEUTICALS, INC., priority 2014, dated 2018)

Legend:
[1] = test system: A673 cells; assay: Inhibition of proliferation of A673 cells (CyQUANT, 72 hour); assay type: cell-based, human; conditions: 72 hour proliferation
Procedure: A673 cells are a cell line derived from human muscle Ewing's sarcoma. Representative compounds of the invention were tested at different concentrations (from 4 μM to 126.4 pM; 0.5 log serial dilutions) for their ability to inhibit the proliferation of A673 cells. Known CDK inhibitors flavopiridol and triptolide were used as positive controls. Cells were grown in Dulbecco's Modified Eagle's Medium, +10% FBS+1 mM Sodium Pyruvate. The cells were cultured at 37° C. in a humidified chamber in the presence of 5% CO2. Proliferation assays were conducted over a 72 hour time period. CyQUANT® (Life Technologies, Chicago, Ill. USA) was used to assess the anti-proliferative effects of the compounds following manufacturer's directions and utilizing the reagents supplied with the CyQUANT® kit. In this table, “A” represents an IC50 of less than 500 nM; “B” an IC50 of between 500 nM and 5 μM; and “C” an IC50 of greater than 5 μM.

[2] = target: CDK7/Cyclin H/MAT1 trimeric complex (Homo sapiens, UniProt P50613); assay: CDK7 kinase assay, Caliper/LabChip EZ Reader (Biortus Biosciences); assay type: biochemical; conditions: CDK7/Cyclin H/MAT1 10 nM, ATP 2 mM, FAM-CDK7tide 2 μM, 30 min incubation, read-out: CDK7 Inhibition (IC50)
Sequence of CDK7/Cyclin H/MAT1 trimeric complex (P50613 whole entry): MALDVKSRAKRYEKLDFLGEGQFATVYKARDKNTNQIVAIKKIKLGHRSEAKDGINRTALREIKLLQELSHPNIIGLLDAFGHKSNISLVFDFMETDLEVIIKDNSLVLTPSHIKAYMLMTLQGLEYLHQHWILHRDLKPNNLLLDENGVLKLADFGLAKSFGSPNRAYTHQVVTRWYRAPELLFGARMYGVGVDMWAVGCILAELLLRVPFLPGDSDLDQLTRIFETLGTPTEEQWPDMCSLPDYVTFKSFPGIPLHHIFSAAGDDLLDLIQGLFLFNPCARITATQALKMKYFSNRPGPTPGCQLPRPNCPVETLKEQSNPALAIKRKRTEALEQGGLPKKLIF
Sequence of CDK7/Cyclin H/MAT1 trimeric complex (P51946 whole entry partner): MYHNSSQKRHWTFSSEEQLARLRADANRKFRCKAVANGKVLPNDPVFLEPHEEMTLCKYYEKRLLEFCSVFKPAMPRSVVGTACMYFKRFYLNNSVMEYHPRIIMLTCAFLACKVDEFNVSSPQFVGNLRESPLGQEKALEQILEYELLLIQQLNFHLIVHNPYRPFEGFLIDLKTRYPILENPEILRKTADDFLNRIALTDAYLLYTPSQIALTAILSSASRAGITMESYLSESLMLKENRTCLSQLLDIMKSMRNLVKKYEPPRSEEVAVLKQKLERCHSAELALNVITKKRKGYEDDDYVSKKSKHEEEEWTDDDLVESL
Sequence of CDK7/Cyclin H/MAT1 trimeric complex (P51948 whole entry partner): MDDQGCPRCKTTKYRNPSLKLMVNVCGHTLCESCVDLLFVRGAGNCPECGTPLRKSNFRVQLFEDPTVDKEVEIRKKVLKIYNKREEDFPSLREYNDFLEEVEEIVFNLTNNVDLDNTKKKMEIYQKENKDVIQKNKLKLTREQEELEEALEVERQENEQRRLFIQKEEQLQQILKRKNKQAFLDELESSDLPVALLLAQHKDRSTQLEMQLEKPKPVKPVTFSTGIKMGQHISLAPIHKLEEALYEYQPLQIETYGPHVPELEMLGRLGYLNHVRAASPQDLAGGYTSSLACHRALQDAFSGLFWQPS
Procedure: Compounds of the invention were further assayed for CDK7 activity at Biortus Biosciences (Jiangyin, Jiangsu Province, P.R. of China) using a CDK7 kinase assay developed with a Caliper/LabChip EZ Reader (Perkin Elmer, Waltham, Mass.). […] The incubation period was chosen such that the total fraction of phosphorylated peptide product produced was <20% for the uninhibited kinase.

[3] = test system: Jurkat cells; assay: Inhibition of proliferation of Jurkat cells (CellTiter-Glo, 72 hour); assay type: cell-based, human; conditions: 10 μM to 316 pM
Procedure: Jurkat cells are a cell line established from a human T cell leukemia. Representative compounds of the invention were tested at different concentrations (from 10 μM to 316 pM; 0.5 log serial dilutions) for their ability to inhibit the proliferation of Jurkat cells. Known CDK inhibitors flavopiridol and triptolide were used as positive controls. Cells were grown in RPMI 1640+10% FBS+1% Glutamax. The cells were supplemented with FBS (Life Technologies) and 100 U·mL^− penicillin, 100 μg·mL^− streptomycin (Invitrogen) and cultured at 37° C. in a humidified chamber in the presence of 5% CO2. Proliferation assays were conducted over a 72 hour time period. CellTiter-Glo® (Promega Corporation, Madison, Wis. USA) was used to assess the anti-proliferative effects of the compounds following manufacturer's directions and utilizing the reagents supplied with the CellTiter-Glo® kit. In this table, “A” represents an IC50 of less than 500 nM; “B” an IC50 of between 500 nM and 5 μM; and “C” an IC50 of greater than 5 μM.

[4] = target: T1, CDK7 (Homo sapiens, UniProt P50613); assay: CDK7 kinase activity, Adapta kinase assay (Life Technologies); assay type: biochemical; conditions: Adapta kinase assay at Life Technologies; 10 μM down to 0.514 nM, 3-fold serial dilutions; read-out: CDK7 Inhibition (IC50)
T1 construct: purchased Life Technologies (Adapta kinase assay service)
T1 sequence (P50613 whole entry): as the sequence (P50613 whole entry) above
T1 sequence (P51946 whole entry partner): as the sequence (P51946 whole entry partner) above
T1 sequence (P51948 whole entry partner): as the sequence (P51948 whole entry partner) above
Procedure: Compounds of the invention were assayed for CDK7 activity at Life Technologies™ (Grand Island, N.Y.) using their commercially available Adapta® kinase assay services. Compounds were tested at concentrations ranging from 10 μM down to 0.514 nM in a series of 3-fold serial dilutions. Details of these assays, including substrates used, are available on the Life Technologies web site (http://www.lifetechnologies.com/us/en/home/life-science/drug-discovery/target-and-lead-identification-and-validation/kinasebiology/kinase-activity-assays.html).

Row | SMILES | IC50 ([1]; Homo sapiens) | IC50 [2] | IC50 [1] | IC50 ([3]; Homo sapiens) | IC50 [4] | IC50 [3]
1 | C=CC(=O)N1CCN([C@H]2CCC[C@@H](Nc3ncc(Cl)c(-c4c[nH]c5ccc(C)cc45)n3)C2)CC1 [Compound 340, 1-(4-((1S,3R)-3-(5-chloro-4-(5-methyl-1H-indol-3-yl)pyrimidin-2-ylamino)cyclohexyl)piperazin-1-yl)prop-2-en-1-One] | < 500 nM | < 100 nM | – | – | – | –
2 | C=CC(=O)N1CCC(CNC2(C)CCCC(Nc3ncc(Cl)c(-c4c[nH]c5ccccc45)n3)C2)CC1 (centres unmarked) [Compound 268] | – | < 100 nM | < 500 nM | – | – | –
3 | CN(C)C/C=C/C(=O)N(C)c1ccc(CN[C@H]2CCC[C@@H](Nc3ncc(Cl)c(-c4c[nH]c5ccccc45)n3)C2)nc1 [Compound 390, (E)-N-(6-((((1S,3R)-3-((5-chloro-4-(1H-indol-3-yl)pyrimidin-2-yl)amino)cyclohexyl)amino)methyl)pyridin-3-yl)-4-(dimethylamino)-N-methylbut-2-enamide] | < 500 nM | < 100 nM | – | – | – | –
4 | C=C(F)C(=O)N1CCN([C@H]2CCC[C@@H](Nc3ncc(Cl)c(-c4c[nH]c5ccccc45)n3)C2)CC1 [compound 401] | – | < 100 nM | < 500 nM | – | – | –
5 | C=CC(=O)N1CCN([C@H]2CCC[C@@H](Nc3ncc(Cl)c(-c4nnc5ccccn45)n3)C2)CC1 [Compound 344, 1-(4-((1S,3R)-3-((4-([1,2,4]triazolo[4,3-a]pyridin-3-yl)-5-chloropyrimidin-2-yl)amino)cyclohexyl)piperazin-1-yl)prop-2-en-1-One] | < 500 nM | < 100 nM | – | – | – | –
6 | CN(C)C/C=C/C(=O)Nc1ccc(CN[C@H]2CCC[C@@H](Nc3ncc(Cl)c(-c4c[nH]c5ccccc45)n3)C2)nc1 [Compound 261] | < 500 nM | < 100 nM | – | – | – | –
7 | CN(C)C/C=C/C(=O)Nc1ccc(C(=O)N[C@H]2CCC[C@@H](Nc3ncc(Cl)c(-c4cccc5c4ccn5C)n3)C2)nc1 [Compound 269, N-((1S,3R)-3-((5-chloro-4-(1-methyl-1H-indol-4-yl)pyrimidin-2-yl)amino)cyclohexyl)-5-((E)-4-(dimethylamino)but-2-enamido)picolinamide] | < 500 nM | < 100 nM | – | – | – | –
8 | CN(C)C/C=C/C(=O)Nc1ccc(C(=O)N[C@H]2CCC[C@@H](Nc3ncc(Cl)c(-c4cccc5[nH]ccc45)n3)C2)nc1 [Compound 264, N-((1S,3R)-3-((5-chloro-4-(1H-indol-4-yl)pyrimidin-2-yl)amino)cyclohexyl)-5-((E)-4-(dimethylamino)but-2-enamido)picolinamide] | < 500 nM | < 100 nM | – | – | – | –
9 | C=CC(=O)N1CCC(CN(C)[C@H]2CCC[C@@H](Nc3ncc(Cl)c(-c4c[nH]c5ccccc45)n3)C2)CC1 [Compound 167] | < 500 nM | – | – | < 500 nM | < 100 nM | –
10 | C=CC(=O)N1CCCC(CN(C(=O)C=C)C2CCC(Nc3ncc(Cl)c(-c4c[nH]c5ccccc45)n3)CC2)C1 (centres unmarked) [Compound 191-1, N-[4-[[5-chloro-4-(1H-indol-3-yl)pyrimidin-2-yl]amino]cyclohexyl]-N-[(1-prop-2-enoyl-3-piperidyl)methyl]prop-2-enamide] | 500 to 5000 nM | – | – | < 500 nM | < 100 nM | –
11 | CN(C)C/C=C/C(=O)N1CCN([C@H]2CCC[C@@H](Nc3ncc(Cl)c(C4C(=O)Nc5ccccc54)n3)C2)CC1 (stereo partly drawn) [Compound 293, 3-(5-chloro-2-(((1R,3S)-3-(4-((E)-4-(dimethylamino)but-2-enoyl)piperazin-1-yl)cyclohexyl)amino)pyrimidin-4-yl)indolin-2-One] | < 500 nM | 100 to 1000 nM | – | – | – | –
12 | C=CC(=O)N1CCC(NC(=O)N2CCC[C@@H](Nc3ncc(Cl)c(-c4c[nH]c5ccccc45)n3)C2)CC1 [Compound 205] | – | – | < 500 nM | – | 100 to 1000 nM | 500 to 5000 nM
13 | C=CC(=O)N1CCN(CC2(O)CCC[C@@H](Nc3ncc(Cl)c(-c4c[nH]c5ccccc45)n3)C2)CC1 (single isomer, unassigned) [Compound 187] | < 500 nM | – | – | < 500 nM | < 100 nM | –
14 | C=CC(=O)N1CCC(CNC2CCC(Nc3ncc(Cl)c(-c4c[nH]c5ccccc45)n3)CC2)CC1 (centres unmarked) [compound 184] | – | – | > 5000 nM | – | 100 to 1000 nM | > 5000 nM
15 | O=C(/C=C/CN1CCOCC1)N1CCC(C(=O)N2CC[C@H](Nc3ncc(Cl)c(-c4c[nH]c5ccccc45)n3)C2)CC1 [Compound 211, (S,E)-1-(4-(3-((5-chloro-4-(1H-indol-3-yl)pyrimidin-2-yl)amino)pyrrolidine-1-carbonyl)piperidin-1-yl)-4-morpholinobut-2-en-1-One] | < 500 nM | – | – | > 5000 nM | 100 to 1000 nM | –
16 | CN(C)C/C=C/C(=O)Nc1cnn(CC2(O)CCC(Nc3ncc(Cl)c(-c4c[nH]c5ccccc45)n3)CC2)c1 (centres unmarked) [Compound 114, (E)-N-(1-((4-(5-chloro-4-(1H-indol-3-yl)pyrimidin-2-ylamino)-1-hydroxycyclohexyl)methyl)-1H-pyrazol-4-yl)-4-(dimethylamino)but-2-enamide] | > 5000 nM | – | – | > 5000 nM | < 100 nM | –
17 | C=CC(=O)N1CCC(CNC2CCC(Nc3ncc(Cl)c(-c4c[nH]c5ccccc45)n3)CC2)CC1 (centres unmarked) [compound 163] | – | – | < 500 nM | – | < 100 nM | < 500 nM
18 | C=CC(=O)N1CCC(C(=O)N2CC[C@@H](Nc3ncc(Cl)c(-c4c[nH]c5ccccc45)n3)C2)CC1 [Compound 214, 1-[4-[(3R)-3-[[5-chloro-4-(1H-indol-3-yl)pyrimidin-2-yl]amino]pyrrolidine-1-carbonyl]-1-piperidyl]prop-2-en-1-One] | < 500 nM | – | – | > 5000 nM | 100 to 1000 nM | –
19 | C=CC(=O)N1CCCC(CNC2CCC(Nc3ncc(Cl)c(-c4c[nH]c5ccccc45)n3)CC2)C1 (centres unmarked) [Compound 190, 1-[3-[[[4-[[5-chloro-4-(1H-indol-3-yl)pyrimidin-2-yl]amino]cyclohexyl]amino]methyl]-1-piperidyl]prop-2-en-1-One] | < 500 nM | – | – | 500 to 5000 nM | < 100 nM | –
20 | C=CC(=O)N1CCN([C@@H]2CCC[C@@H](Nc3ncc(Cl)c(-c4c[nH]c5ccccc45)n3)C2)CC1 [Compound 180] | – | – | < 500 nM | – | 100 to 1000 nM | < 500 nM
21 | C=CC(=O)NC12CC(C(=O)N[C@H]3CCC[C@@H](Nc4ncc(Cl)c(-c5c[nH]c6ccccc56)n4)C3)(C1)C2 (racemic) [Compound 109, N-[(±)-3-{[5-chloro-4-(1H-indol-3-yl)pyrimidin-2-yl]amino}cyclohexyl]-3-(prop-2-enamido)bicyclo[1.1.1]pentane-1-carboxamide] | < 500 nM | – | – | < 500 nM | > 1000 nM | –
22 | C=CC(=O)N[C@@H]1CN[C@H](C(=O)N[C@H]2CCC[C@@H](Nc3ncc(Cl)c(-c4c[nH]c5ccccc45)n3)C2)C1 [Compound 153, (2S,4S)-4-acrylamido-N-((1S,3R)-3-(5-chloro-4-(1H-indol-3-yl)pyrimidin-2-ylamino)cyclohexyl)pyrrolidine-2-carboxamide] | < 500 nM | – | – | < 500 nM | < 100 nM | –
23 | CN(C)C/C=C/C(=O)NCC(F)(F)C(=O)N[C@H]1CCC[C@@H](Nc2ncc(Cl)c(-c3c[nH]c4ccccc34)n2)C1 [Compound 111, (E)-N-(3-((1S,3R)-3-(5-chloro-4-(1H-indol-3-yl)pyrimidin-2-ylamino)cyclohexlamino)-2,2-difluoro-3-oxopropyl)-4-(dimethylamino)but-2-enamide] | – | – | – | < 500 nM | < 100 nM | –
